{
  "source": "PubChem BioAssay (NCI)",
  "assay_in_all_cases": "NCI-60 cell line screen, 48 h",
  "key": {"[1]": {"tested_on": "SF-539 CNS"}, "[2]": {"tested_on": "UACC-257 melanoma"}, "[3]": {"tested_on": "SR leukemia"}, "[4]": {"tested_on": "NCI/ADR-RES ovarian"}, "[5]": {"tested_on": "PC-3 prostate"}, "[6]": {"tested_on": "K-562 leukemia"}, "[7]": {"tested_on": "MOLT-4 leukemia"}, "[8]": {"tested_on": "SF-268 CNS"}, "[9]": {"tested_on": "OVCAR-5 ovarian"}, "[10]": {"tested_on": "CAKI-1 renal"}, "[11]": {"tested_on": "T-47D breast"}, "[12]": {"tested_on": "SW-620 colon"}, "[13]": {"tested_on": "SK-OV-3 ovarian"}, "[14]": {"tested_on": "OVCAR-4 ovarian"}, "[15]": {"tested_on": "DU-145 prostate"}, "[16]": {"tested_on": "786-0 renal"}, "[17]": {"tested_on": "HCC-2998 colon"}, "[18]": {"tested_on": "HOP-62 NSCLC"}, "[19]": {"tested_on": "OVCAR-8 ovarian"}, "[20]": {"tested_on": "KM12 colon"}, "[21]": {"tested_on": "UO-31 renal"}, "[22]": {"tested_on": "HCT-116 colon"}, "[23]": {"tested_on": "COLO 205 colon"}, "[24]": {"tested_on": "SK-MEL-28 melanoma"}, "[25]": {"tested_on": "NCI-H226 lung"}, "[26]": {"tested_on": "A549 NSCLC"}, "[27]": {"tested_on": "RPMI-8226 leukemia"}, "[28]": {"tested_on": "HT29 colon"}, "[29]": {"tested_on": "BT-549 breast"}},
  "note": "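Results reflect a 48-hour exposure of cells in 96-well plates to compound at five concentrations. GI50 is the concentration that inhibits growth by half. TGI: concentration producing complete growth inhibition.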",
  "data": [
    {"smiles": "COc1ccc2nc(C)cc(Sc3nc4ccccc4s3)c2c1", "values": [
      {"measurement": "GI50", "setting": "[1]", "value": 1730, "unit": "nM"},
      {"measurement": "TGI", "setting": "[1]", "value": 4040, "unit": "nM"},
      {"measurement": "GI50", "setting": "[2]", "value": 4250, "unit": "nM"},
      {"measurement": "TGI", "setting": "[2]", "value": 25500, "unit": "nM"},
      {"measurement": "GI50", "setting": "[3]", "value": 432, "unit": "nM"},
      {"measurement": "TGI", "setting": "[3]", "value": 2460, "unit": "nM"},
      {"measurement": "GI50", "setting": "[4]", "value": 1430, "unit": "nM"},
      {"measurement": "TGI", "setting": "[4]", "value": 4420, "unit": "nM"},
      {"measurement": "GI50", "setting": "[5]", "value": 288, "unit": "nM"},
      {"measurement": "TGI", "setting": "[5]", "value": 3000, "unit": "nM"},
      {"measurement": "GI50", "setting": "[6]", "value": 1210, "unit": "nM"},
      {"measurement": "GI50", "setting": "[7]", "value": 1250, "unit": "nM"},
      {"measurement": "TGI", "setting": "[7]", "value": 7920, "unit": "nM"},
      {"measurement": "GI50", "setting": "[8]", "value": 2020, "unit": "nM"},
      {"measurement": "TGI", "setting": "[8]", "value": 5510, "unit": "nM"},
      {"measurement": "GI50", "setting": "[9]", "value": 1790, "unit": "nM"},
      {"measurement": "TGI", "setting": "[9]", "value": 8190, "unit": "nM"},
      {"measurement": "TGI", "setting": "[10]", "value": 626, "unit": "nM"},
      {"measurement": "GI50", "setting": "[11]", "value": 881, "unit": "nM"},
      {"measurement": "TGI", "setting": "[11]", "value": 11000, "unit": "nM"},
      {"measurement": "GI50", "setting": "[12]", "value": 1510, "unit": "nM"},
      {"measurement": "TGI", "setting": "[12]", "value": 2980, "unit": "nM"},
      {"measurement": "GI50", "setting": "[13]", "value": 1190, "unit": "nM"},
      {"measurement": "TGI", "setting": "[13]", "value": 4750, "unit": "nM"},
      {"measurement": "GI50", "setting": "[14]", "value": 993, "unit": "nM"},
      {"measurement": "TGI", "setting": "[14]", "value": "> 21200", "unit": "nM"},
      {"measurement": "GI50", "setting": "[15]", "value": 2200, "unit": "nM"},
      {"measurement": "TGI", "setting": "[15]", "value": 7550, "unit": "nM"},
      {"measurement": "GI50", "setting": "[16]", "value": 562, "unit": "nM"},
      {"measurement": "TGI", "setting": "[16]", "value": 3280, "unit": "nM"},
      {"measurement": "GI50", "setting": "[17]", "value": 93.8, "unit": "nM"},
      {"measurement": "TGI", "setting": "[17]", "value": 2540, "unit": "nM"},
      {"measurement": "GI50", "setting": "[18]", "value": 1260, "unit": "nM"},
      {"measurement": "TGI", "setting": "[18]", "value": 6060, "unit": "nM"},
      {"measurement": "GI50", "setting": "[19]", "value": 2660, "unit": "nM"},
      {"measurement": "TGI", "setting": "[19]", "value": 10900, "unit": "nM"},
      {"measurement": "GI50", "setting": "[20]", "value": 1900, "unit": "nM"},
      {"measurement": "TGI", "setting": "[20]", "value": 5070, "unit": "nM"},
      {"measurement": "GI50", "setting": "[21]", "value": 385, "unit": "nM"},
      {"measurement": "TGI", "setting": "[21]", "value": 5430, "unit": "nM"},
      {"measurement": "GI50", "setting": "[22]", "value": 1140, "unit": "nM"},
      {"measurement": "TGI", "setting": "[22]", "value": 3150, "unit": "nM"},
      {"measurement": "GI50", "setting": "[23]", "value": 816, "unit": "nM"},
      {"measurement": "TGI", "setting": "[23]", "value": 2580, "unit": "nM"},
      {"measurement": "GI50", "setting": "[24]", "value": 2450, "unit": "nM"},
      {"measurement": "TGI", "setting": "[24]", "value": 9890, "unit": "nM"},
      {"measurement": "GI50", "setting": "[25]", "value": 728, "unit": "nM"},
      {"measurement": "TGI", "setting": "[25]", "value": 4100, "unit": "nM"},
      {"measurement": "GI50", "setting": "[26]", "value": 2210, "unit": "nM"},
      {"measurement": "TGI", "setting": "[26]", "value": 14200, "unit": "nM"},
      {"measurement": "GI50", "setting": "[27]", "value": 362, "unit": "nM"},
      {"measurement": "TGI", "setting": "[27]", "value": 2160, "unit": "nM"},
      {"measurement": "GI50", "setting": "[28]", "value": 1890, "unit": "nM"},
      {"measurement": "TGI", "setting": "[28]", "value": 7710, "unit": "nM"},
      {"measurement": "GI50", "setting": "[29]", "value": 1280, "unit": "nM"},
      {"measurement": "TGI", "setting": "[29]", "value": 4450, "unit": "nM"}
    ]}
  ]
}
